“Also recorded” adds a separate entry of the source.
Legend:
[1] = system: FV-LSCs (M34^+Kit^+Sca1^+); assay: Apoptosis of FV-LSCs treated ex vivo (annexin V, flow cytometry); format: cell-based, mouse; conditions: 25 nM, 36 h; for apoptosis of FV-LSCs: annexin V
Procedure: On day 14 after infection, spleens were isolated and a single cell suspension of spleen cells was generated. The cells were filtered through a 70 μm sterile filter and flow-through cells were resuspended in RBC lysis buffer followed by centrifugation. Leukemia stem cells were isolated by FACS. Spleen cells were labeled with anti-Kit, Sca1 (BioLegend, San Diego, Calif.) and M34 antibodies. […] As indicated M34^+Kit^+Sca1^+ cells were cultured in Methocult media (Stem Cell Technologies Vancouver BC) M3334 supplemented with 200 ng/ml Sonic Hedgehog (Shh), 15 ng/ml bone morphogenetic protein-4 (BMP4) (both from R&D Systems Minneapolis, Minn.), and 50 ng/ml stem cell factor (SCF; Peprotech).
The cells were stained with annexin V-FITC and analyzed by flow cytometry. […] Means±s.e.m. *P<0.001 compared to vehicle (PBS). […] Inset: Effect of rosiglitazone on the apoptosis of LSC. Rosiglitazone (0.1-2.0 μM) was incubated with LSC in the culture media for 36 h as described earlier and the cells were subjected to annexin-V staining followed by flow cytometry. […] LSC were treated ex vivo with indicated concentrations of each compound for 36 h. Mean±s.e.m. shown *P<0.001.

p53 = p53 expression in FV-LSCs treated ex vivo (RT-PCR, nuclear extracts); format: cell-based, mouse
[2] = system: BCR-ABL^+LSC (Kit^+Sca1^+Lin^−GFP^+); assay: Apoptosis of BCR-ABL+ LSCs treated ex vivo (annexin V, flow cytometry); format: cell-based, mouse; conditions: for apoptosis of Sca1+GFP+Kit+ BCR-ABL+LSC from spleen: 25-1000 nM, 36 h
Procedure: Apoptosis. Apoptosis of LSCs was performed using annexin V as described below in Supplementary Information and Methods.
Apoptosis. The LSCs were diluted in DMEM, resuspended using a 16-gauge needle, and collected by centrifugation. 1×10^5 cells were resuspended in 200 μl of binding buffer (0.1 M HEPES with 1.4 M NaCl, 25 mM CaCl2, pH 7.4). Annexin V FITC (BD Biosciences) was incubated with cells for 15 min on ice followed by flow cytometric analysis.
The ability of CyPGs derived from arachidonic acid (2 series PGs) to induce apoptosis was tested in cultures of LSCs from FV infected mice and in the murine CML model. […] 15d-PGJ2 is known as a PPAPγ agonist. […] In FIG. 7C Δ^12-PGJ3, 15d-PGJ2 or 9,10-dihydro-15d-PGJ2 are tested for their ability to induce apoptosis in a murine CML model. […] The cells were stained with annexin V-FITC and analyzed by flow cytometry. Representative of N=4. […] Inset: Effect of rosiglitazone on the apoptosis of LSC. Rosiglitazone (0.1-2.0 μM) was incubated with LSC in the culture media for 36 h as described earlier and the cells were subjected to annexin-V staining followed by flow cytometry. […] LSC were treated ex vivo with indicated concentrations of each compound for 36 h.
Following 36 h of incubation, apoptotic cells were quantified by annexin V staining. […] In a related study to address if Δ^12-PGJ3 treatment would cause any degranulation of granulocytes, a rat basophilic cell line ([…]) was treated with 100 nM Δ^12-PGJ3 and the degranulation was followed by quantitating the release of histamine and a second marker of degranulation, hexoseaminidase.
In this experiment, 500,000 BCR-ABL+ LSCs were plated in a 24-well plate followed and were treated with 25 nM PGD2Me or 100 nM ZK118182 (both are agonists of DP) for 24 h. GFP^+ cells were analyzed by flow cytometry. These agonists were purchased from Cayman Chemicals, MI.

LSCs = assay: Apoptosis of LSCs as summarised in the discussion (model not specified or both models); format: cell-based, mouse; conditions: FV-induced leukemia and BCR-ABL+ retrovirus-based murine CML model
[3] = system: murine erythroleukemia (MEL) cells; assay: MEL cell apoptosis and viability (MTT, CCK-8); format: cell-based, mouse; conditions: anti-leukemic drugs 1 μM, nutlin 5 μM, 24 h, MTT/CCK-8
Procedure: Cell culture. Murine erythroleukemia (MEL) cells were cultured in DMEM with 10% FBS. In order to examine the production 3-series PGs, BALB/c-derived RAW264.7 macrophage-like cells (ATCC) were cultured in DMEM containing 5% FBS, 250 nM sodium selenite, and 50 μM EPA (as BSA conjugate) for 72 h followed by stimulation with E. coli endotoxin lipopolysaccharide (LPS; Serotype 0111B4; 50 ng/ml) for 30 min. The cells were cultured in fresh DMEM for an additional 24-144 h. Cells cultured with cell culture-grade fatty acid free BSA (Sigma Aldrich) served as a control. Culture media was withdrawn at various times and analyzed for 3-series PGs as described below. Total RNA was isolated from cells or tissues using Trizol reagent as per the instructions of the supplier (Invitrogen, Carlsbad, Calif.) and cDNA was prepared using a High Capacity cDNA Reverse Transcriptase kit (Applied Biosystems, Foster City, Calif.). Semiquantitative RT-PCR for p53 and β-actin was performed with primers as described in Supplementary Methods. Nuclear and cytoplasmic protein extracts of LSCs were prepared using standard methods previously described (Vunta H et al., J Biol Chem. 2007; 282:17964-17973).
Cell viability studies. MEL cells were cultured in DMEM containing 10% FBS and treated with various commonly used anti-leukemic drugs such as daunorubicin (DNR), mitoxantrone (MIT), and cytarabine (CYT) at a final concentration […] for 24 h. […] After 24 h of drug treatment, cell proliferation was measured by MTT assay with CCK-8 kit from Dojindo Molecular Technologies, Inc. (Gaithersburg, Md.). All viability values reported are relative to untreated cells (UT) that was designated to be 100%. Results represent the mean±SEM of three independent observations.
In order to address whether MEL cells are resistant in general to chemotherapy agents, we tested whether MEL cells can be killed by apoptosis when treated with standard anti-leukemia drugs. Treatment with various commonly used anti-leukemic drugs such as daunorubicin (DNR), mitoxantrone (MIT), and cytarabine (CYT) at a final concentration 1 μM for 24 h. […] After 24 h of drug treatment, cell proliferation was measured by MTT assay with CCK-8 kit from Dojindo Molecular Technologies, Inc. (Gaithersburg, Md.). […] The results represent the mean±SEM of three independent observations.

[4] = system: Friend virus (FV)-induced erythroleukemia; assay: FV-induced erythroleukemia in FV-infected mice, intraperitoneal treatment; format: in vivo, mouse
From the text: FV-induced erythroleukemia and production of FV leukemia stem cells (FV-LSCs): BALB/c mice were infected with FV as previously described (Subramanian A et al., J Virol. 2008; 82:382-393; Harandi O F et al., J Clin Invest. 2010; 120:4507-4519). On day 14 after infection, spleens were isolated and a single cell suspension of spleen cells was generated. The cells were filtered through a 70 μm sterile filter and flow-through cells were resuspended in RBC lysis buffer followed by centrifugation. Leukemia stem cells were isolated by FACS. Spleen cells were labeled with anti-Kit, Sca1 (BioLegend, San Diego, Calif.) and M34 antibodies. M34 is a monoclonal antibody that recognizes the envelope protein of SFFV (Chesebro B et al., Virology. 1981; 112:131-144) and was used as previously described (Subramanian A et al., J Virol. 2008; 82:382-393). As indicated M34^+Kit^+Sca1^+ cells were cultured in Methocult media (Stem Cell Technologies Vancouver BC) M3334 supplemented with 200 ng/ml Sonic Hedgehog (Shh), 15 ng/ml bone morphogenetic protein-4 (BMP4) (both from R&D Systems Minneapolis, Minn.), and 50 ng/ml stem cell factor (SCF; Peprotech). For CFU-FV assays, cells were plated in methylcellulose media containing fetal calf serum, but lacking added growth factors as previously described (Mager D L et al., Proc Natl Acad Sci USA. 1981; 78:1703-1707).
Complete blood counts of mice treated with Δ^12-PGJ3 (0.05 mg/kg) were examined. There is no difference in treated mice and untransplanted control mice in terms of white blood cell counts, red blood cell counts or platelet counts. Changes in hematological parameters in FV-infected mice upon treatment with CyPGs were examined. FV-infected Balb/c mice were treated with Δ^12-PGJ3 (0.05 mg/kg) intraperitoneally for 7 d following which the mice were sacrificed and hematological parameters were analyzed on an Advia blood analyzer. FV-infected Δ^12-PGJ3 treated mice were compared to infected vehicle controls. N=5 per group, all data are means±s.e.m. *P<0.05. 3% w/v hydroxypropyl-3-cyclodextrin was used as a vehicle in in vivo experiments. Spleen sizes of FV-infected mice that were treated with either vehicle, 9,10-dihydro-15d-PGJ2 (0.05 mg/kg), or 15d-PGJ2 (0.05 mg/kg) were examined; N=3 pre group. Hematological parameters of Balb/c uninfected, infected, and 15d-PGJ2 treated mice were examined. N=5 per group. All data were means±s.e.m. *P<0.05.
FV-LSC were targeted by 15d-PGJ2 in the spleen of FV-infected mice. FV-infected mice were treated with 15d-PGJ2 or 9,10-dihydro-15d-PGJ2 at 0.05 mg/kg for 7 d. The splenic LSC (M34^+Sca1^+Kit^+) cells were analyzed by flow cytometry on day 14 post infection. […] Uninfected and infected vehicle controls were used for comparison. N=3; *P<0.05. […] The colonies were counted 10-14 days after plating. N=3 mice per group, *p<0.05.

[5] = system: FV-LSCs transplanted into BALB/c-Stk^−/− mice
Procedure: Transplant of FV-LSCs into BALB/c-Stk^−/− mice: FV-LSCs were generated as described above. 2.5×10^5 FV-LSCs were transplanted into BALB/c-Stk^−/− mice by retro-orbital injection. Six weeks after transplant the mice were treated with CyPGs or vehicle control as indicated in the text.
Treatment of Mice with PGs: Mice with FV-induced erythroleukemia or MIGR-BCR-ABL induced CML were treated on the indicated days with CyPGs. Mice were treated with a daily intraperitoneal injection of Δ^12-PGJ3 (0.01-0.1 mg/kg), 15d-PGJ2 (0.1 mg/kg), or 9,10-dihydro-15d-PGJ2 (0.1 mg/kg) for 7 days. All three compounds were formulated with hydroxypropyl-β-cyclodextrin (30% w/v; Sigma; vehicle control).
Stk^−/− mice are resistant to Friend virus infection so the leukemia developed by the transplanted mice is result of the transplanted LSCs and not FV infection. […] LSCs sorted from the spleens of FV-infected mice were transplanted into Stk^−/− mice (on a Balb/c background). After 6 weeks such mice were treated daily for 1 week with vehicle (hydroxypropyl-β-cyclodextrin), 15d-PGJ2 (0.05 mg/kg), or 9,10-dihydro-15d-PGJ2 (0.05 mg/kg) by intraperitoneal injection. The mice were sacrificed 51 days post LSC transplantation for analysis. An analysis of spleens of mice comparing splenomegaly in vehicle, 15d-PGJ2, or 9,10-dihydro-15d-PGJ2 treated transplanted mice was performed. Spleen weight compared to control (untransplanted mice) after treatment and WBC counts in the peripheral blood of the mice after treatment were examined, and a flow cytometric analysis of the spleen of untransplanted and LSC transplanted mice after treatment was performed. All data were mean±s.e.m. *p<0.05 compared to control or 9,10-dihydro-15d-PGJ2 treated groups. N=5 per group.

CCCCC[C@H](O)/C=C/[C@H]1C(=O)C=C[C@@H]1C/C=C\CCCC(=O)O [PGJ2]
apoptosis of FV-LSCs [1]: largely ineffective
p53 expression at transcript level (p53; 10 or 25 nM, 12 h): only a minor degree
p53 expression after preincubation of compound with media (p53; preincubated at 37° C. for 42 h before adding LSCs): increased expression of p53

CS(=O)(=O)c1cc(F)cc2c3c(n(Cc4ccc(Cl)cc4)c12)[C@@H](CC(=O)O)CC3 [MK0824]
inhibition of Δ^12-PGJ3-induced apoptosis by DP antagonist ([2]; antagonist 10 nM, 2 h pretreatment, then 25 nM Δ^12-PGJ3, 36 h): inhibited

CC/C=C\C/C=C/C=C1/C(=O)C=C[C@@H]1C/C=C\CCCC(=O)O [15d-PGJ3, reference compound]
increase in apoptosis of FV-LSCs [1]: ~75%
targeting of LSCs for apoptosis (LSCs): targeted LSCs for apoptosis

CCCCC[C@H](O)/C=C/[C@H]1C(=O)C[C@H](O)[C@@H]1C/C=C\CCCC(=O)OC [PGD2Me, 9α,15S-dihydroxy-11-oxo-prosta-5Z,13E-dien-1-oic acid, methyl ester]
apoptosis of BCR-ABL+ LSCs by synthetic DP agonists (GFP+ cells) ([2]; 25 nM PGD2Me or 100 nM ZK118182, 24 h): can induce apoptosis of LSCs

CC/C=C\C[C@H](O)/C=C/[C@H]1C(=O)C=C[C@@H]1C/C=C\CCCC(=O)O [PGJ3, reference compound]
increase in apoptosis of FV-LSCs [1]: 2 fold
targeting of LSCs for apoptosis (LSCs): ineffective

COc1ccc(C2=NC(c3ccc(Cl)cc3)C(c3ccc(Cl)cc3)N2C(=O)N2CCNC(=O)C2)c(OC(C)C)c1 (stereo not shown) [nutlin]
sensitivity of MEL cells to drugs [3]: not
sensitivity of MEL cells to drugs ([3]; listed as Nutlin): lack of activation of p53 and apoptosis

CCCCC/C=C/C=C1/C(=O)C=C[C@@H]1C/C=C\CCCC(=O)O [15d-PGJ2, reference compound]
apoptosis of Sca1+GFP+Kit+ BCR-ABL+LSC from spleen [2]: active; also recorded: significantly increased their apoptosis
apoptosis of FV-LSCs [1]: able to induce apoptosis; also recorded: Responses similar to Δ^12-PGJ3
LSCs (Sca1+Kit+M34+) in the spleen ([4]; 0.05 mg/kg i.p. 7 d, flow cytometry day 14 post infection): significant decrease in LSC numbers; also recorded: Identical results
total leukocyte and reticulocyte counts ([4]; i.p. 7 days): decreased to normal levels
Friend virus viral replication ([4]; mouse, in vivo): does not affect Friend virus viral replication
CFU-FV colony formation ([4]; spleen cells of treated mice plated without growth factors): significantly decreased the number of transformed leukemia cells
hematocrit, WBC counts and reticulocyte counts ([5]; FV-induced leukemia, FIG. 3C): significantly decreased
LSCs (M34+Sca1+Kit+) in the spleen ([5]; flow cytometry after 1 week i.p. treatment): eradication of FV LSCs in the spleen and resolution of the diseases

COc1cccc2c1C(=O)c1c(O)c3c(c(O)c1C2=O)C[C@@](O)(C(C)=O)C[C@@H]3O[C@H]1C[C@H](N)[C@H](O)[C@H](C)O1 [daunorubicin]
sensitivity of MEL cells to drugs [3]: caused significant apoptosis; also recorded: exhibited sensitivity

O=C(NC(NC(=S)Nc1ccc(F)c([N+](=O)[O-])c1)C(Cl)(Cl)Cl)C(c1ccccc1)c1ccccc1 (stereo not shown) [CGK-733]
block of Δ^12-PGJ3-dependent p53 expression by ATM inhibitors (p53; preincubation, then Δ^12-PGJ3): blocked the CyPG-dependent expression of p53

CCCCC[C@H](O)C/C=C1/C(=O)C=C[C@@H]1C/C=C\CCCC(=O)O [Δ^12-PGJ2]
apoptosis of Sca1+GFP+Kit+ BCR-ABL+LSC from spleen [2]: active
apoptosis of FV-LSCs [1]: able to induce apoptosis; also recorded: Responses similar to Δ^12-PGJ3

O=C1c2c(O)ccc(O)c2C(=O)c2c(NCCNCCO)ccc(NCCNCCO)c21 [mitoxantrone]
sensitivity of MEL cells to drugs [3]: caused significant apoptosis; also recorded: exhibited sensitivity

Nc1ccn([C@@H]2O[C@H](CO)[C@@H](O)[C@@H]2O)c(=O)n1 [cytarabine]
sensitivity of MEL cells to drugs [3]: caused significant apoptosis; also recorded: exhibited sensitivity

— US9623031B2, “Compositions, methods and kits for treating cancer” (priority 2011, dated 2017)
